# Reference: US12509446B2, “FYN and VEGFR2 kinase inhibitors” (ROTTAPHARM BIOTECH S.R.L., priority 2019, dated 2025)
# Read-outs that look alike come from different tables or passages of the source.
# Columns and labels:
# MMP13 = assay: Gene expression in rat articular chondrocytes under IL-1β stimulation, MMP13; format: cell-based; design: key to MMP13 gene expression, no effect: ne: no effect
# How it was run: (§1)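 Primary rat chondrocytes were synchronized in DMEM GlutaMAX I 0.4% 10 days after plating, then co-treated with test compounds (top concentration set by toxicity) and cytokine at 2 ng/ml. TaqMan RT-qPCR relative to 18S was read at 6 h for IL-1β and ADAMTS-5 and at 24 h for MMP3 and MMP13.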
# IL-1β = assay: Gene expression in rat articular chondrocytes under IL-1β stimulation, IL-1β; format: cell-based; conditions: for IL-1β gene expression, percentage of inhibitory effect at the highest non toxic concentration: 6 h; for IC50: Rattus norvegicus, Chondrocyte, 6 h incubation
# How it was run: as §1
# NF-kB = assay: Gene reporter (GR) assay, NF-kB activation after TNFα in JB6 Cl 41-5a (P+) cells; format: cell-based, murine; conditions: TNFα 2 ng/ml, non toxic concentrations, read-out: Gene reporter (GR) inhibition IC50
# How it was run: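 TNFα (2 ng/ml, 4 h) stimulation followed 1 h compound pre-treatment in NF-kB-luciferase-transfected mouse JB6 (P+) epithelial cells. Reporter luminescence and cell viability were read together, each condition in quadruplicate.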
# Fyn = Fyn (Homo sapiens (Human), UniProt P06241); assay: Z′-LYTE in vitro Fyn kinase activity assay; format: biochemical; conditions: ATP 50 μM; read-out: FYN KINASE INHIBITION IC50
# How it was run: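 Z′-LYTE FRET format with full-length active Fyn in 50 mM Hepes pH 7.5, 10 mM MgCl2, 1 mM EGTA, 0.01% Brij-35, 1% DMSO final; 60 minutes at 25° C. Percent phosphorylation from 0% and 100% phosphorylation controls; IC50 by non-linear curve fitting of percent inhibition.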
# IL-6 = assay: Gene expression in rat articular chondrocytes under IL-1β stimulation, IL-6; format: cell-based; conditions: for IL-6 gene expression, percentage of inhibitory effect at the highest non toxic concentration: 6 h
# ADAMTS-5 = assay: Gene expression in rat articular chondrocytes under IL-1β stimulation, ADAMTS-5; format: cell-based; conditions: for ADAMTS-5 gene expression, percentage of inhibitory effect at the highest non toxic concentration: 6 h; for IC50: Rattus norvegicus, Chondrocyte, 6 h incubation
# How it was run: as §1
# VEGFR2 = VEGFR2 (Homo sapiens (Human), UniProt P35968); assay: In vitro VEGFR2 kinase activity assay (Eurofins Cerep); format: biochemical; conditions: read-out: VEGFR2 KINASE INHIBITION IC50
# How it was run: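 Contract biochemical kinase assay on human VEGFR2 with inhibitors at 10^−8 to 10^−5 M final (some re-tested from 10^−9 M). Activity expressed as percent of no-compound control; IC50 by non-linear regression of mean replicate inhibition curves.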
# COX2 = assay: Gene expression in rat articular chondrocytes under IL-1β stimulation, COX2; format: cell-based; design: key to COX2 gene expression, no effect: ne: no effect
# [1] = tested on: bovine nasal septum cartilage; assay: Inhibition of cartilage degradation (GAG release) induced by IL-1α in a bovine in vitro model; format: cell-based; design: key to Bovine cartilage degradation induced by IL-1α, no effect: ne: no effect; conditions: for Inhibitory effect on the GAG release: at max concentration
# How it was run: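 Cartilage punches (2 mm) from an 8-month-old male bovine nasal septum were cultured 48 h, then stimulated 48 h with IL-1α […] ± compound in DMEM + 0.1% BSA. Compound doses were set from 48 h rat chondrocyte toxicity. GAG in medium and papain-digested tissue was measured by DMB absorbance at 590 nm; degradation = medium GAG/total GAG × 100.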
# MMP3 = assay: Gene expression in rat articular chondrocytes under IL-1β stimulation, MMP3; format: cell-based; design: key to MMP3 gene expression, no effect: ne: no effect; conditions: for IC50: Rattus norvegicus, Chondrocyte, 24 h incubation
# How it was run: as §1
# [2] = tested on: rat primary articular chondrocytes
# [3] = tested on: rat primary articular chondrocytes; assay: Toxicity analysis (MTT) in rat primary chondrocytes; conditions: for First toxic concentration at 24 h: rat primary chondrocytes
# [4] = Bos taurus, read-out: Bovine cartilage degradation induced by IL-1α, % inhibitory effect at max concentration
# [5] = Rattus norvegicus, Chondrocyte, 24 h incubation
# Sequence of VEGFR2 (P35968 20-1356): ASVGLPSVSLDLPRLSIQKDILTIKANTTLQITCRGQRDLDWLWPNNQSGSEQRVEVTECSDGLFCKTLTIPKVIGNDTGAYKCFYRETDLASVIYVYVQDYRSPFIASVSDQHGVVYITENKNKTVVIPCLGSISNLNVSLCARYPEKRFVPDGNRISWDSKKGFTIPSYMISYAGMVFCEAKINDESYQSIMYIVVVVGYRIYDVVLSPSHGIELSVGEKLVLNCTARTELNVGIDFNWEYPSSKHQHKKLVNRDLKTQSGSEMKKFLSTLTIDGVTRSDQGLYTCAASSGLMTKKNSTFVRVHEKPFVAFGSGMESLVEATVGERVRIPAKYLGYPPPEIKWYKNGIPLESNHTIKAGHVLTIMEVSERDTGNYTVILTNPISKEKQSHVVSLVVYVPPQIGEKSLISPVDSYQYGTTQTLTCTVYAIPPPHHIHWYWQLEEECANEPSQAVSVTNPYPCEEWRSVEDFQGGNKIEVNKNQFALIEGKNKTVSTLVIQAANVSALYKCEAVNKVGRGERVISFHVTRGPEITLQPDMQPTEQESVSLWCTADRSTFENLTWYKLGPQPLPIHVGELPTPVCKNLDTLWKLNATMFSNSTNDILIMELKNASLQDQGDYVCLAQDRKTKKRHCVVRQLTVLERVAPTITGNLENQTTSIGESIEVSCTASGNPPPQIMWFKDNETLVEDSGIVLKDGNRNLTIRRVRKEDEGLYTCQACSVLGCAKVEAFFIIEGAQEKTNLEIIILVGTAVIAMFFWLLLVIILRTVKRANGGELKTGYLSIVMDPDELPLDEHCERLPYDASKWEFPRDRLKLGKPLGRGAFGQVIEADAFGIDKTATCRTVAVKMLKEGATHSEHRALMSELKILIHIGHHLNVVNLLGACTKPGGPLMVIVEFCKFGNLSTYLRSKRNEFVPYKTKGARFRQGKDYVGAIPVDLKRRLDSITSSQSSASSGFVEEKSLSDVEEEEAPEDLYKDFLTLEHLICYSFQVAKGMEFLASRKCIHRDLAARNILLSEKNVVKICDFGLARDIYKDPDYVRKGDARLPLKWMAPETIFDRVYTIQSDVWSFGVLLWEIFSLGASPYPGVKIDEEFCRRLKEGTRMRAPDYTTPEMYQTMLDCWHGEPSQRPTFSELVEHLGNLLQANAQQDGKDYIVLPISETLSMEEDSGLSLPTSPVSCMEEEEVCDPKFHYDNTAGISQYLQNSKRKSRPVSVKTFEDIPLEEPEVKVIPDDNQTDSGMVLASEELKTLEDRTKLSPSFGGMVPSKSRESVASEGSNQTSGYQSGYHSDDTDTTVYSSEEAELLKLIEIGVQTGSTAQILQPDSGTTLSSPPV
# Sequence of Fyn (P06241 whole entry): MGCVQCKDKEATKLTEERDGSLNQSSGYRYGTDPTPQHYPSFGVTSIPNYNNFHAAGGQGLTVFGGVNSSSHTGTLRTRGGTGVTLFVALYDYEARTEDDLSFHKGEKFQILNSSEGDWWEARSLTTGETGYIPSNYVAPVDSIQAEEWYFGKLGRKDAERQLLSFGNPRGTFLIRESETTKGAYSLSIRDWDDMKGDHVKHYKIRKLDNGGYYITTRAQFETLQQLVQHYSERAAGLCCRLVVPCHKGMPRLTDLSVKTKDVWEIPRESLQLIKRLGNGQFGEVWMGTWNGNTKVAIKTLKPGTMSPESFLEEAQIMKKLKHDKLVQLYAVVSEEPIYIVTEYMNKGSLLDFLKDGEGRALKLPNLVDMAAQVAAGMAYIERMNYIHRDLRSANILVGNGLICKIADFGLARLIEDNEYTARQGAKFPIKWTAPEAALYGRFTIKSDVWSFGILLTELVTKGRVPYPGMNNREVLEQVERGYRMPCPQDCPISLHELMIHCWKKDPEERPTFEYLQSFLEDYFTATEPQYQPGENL
Structure (SMILES),IC50 (Fyn),IC50 (VEGFR2),IC50 (IL-1β),"IC50 (NF-kB; Mus musculus, JB6 Cl 41-5a)",First toxic concentration at 48 h in rat primary chondrocytes [3],First toxic concentration at 24 h [3],"MMP13 gene expression, percentage of inhibitory effect at the highest non toxic concentration (MMP13; 10 μM, 24 h)","IL-6 gene expression, percentage of inhibitory effect at the highest non toxic concentration (IL-6; 10 μM)","COX2 gene expression, percentage of inhibitory effect at the highest non toxic concentration (COX2; 10 μM, 24 h)","MMP3 gene expression, percentage of inhibitory effect at the highest non toxic concentration (MMP3; 10 μM, 24 h)",further results
"CC(=O)N1Cc2cnc(Nc3cc(CCc4cc(NC(=O)c5cccc(C(F)(F)F)c5)ccc4C)n[nH]3)cc2C1 [Compound 34, N-(3-(2-(5-((2-acetyl-2,3-dihydro-1H-pyrrolo[3,4-c]pyridin-6-yl)amino)-1H-pyrazol-3-yl)ethyl)-4-methylphenyl)-3-(trifluoromethyl) benzamide]",6 nM,< 10 nM,,,,,,,,,"MMP13 gene expression, percentage of inhibitory effect at the highest non toxic concentration (MMP13; 3 μM, 24 h): 3 μM 82%; IL-1β gene expression, percentage of inhibitory effect at the highest non toxic concentration (IL-1β; 3 μM): 3 μM 99%; IC50 (NF-kB): 958 nM; IL-6 gene expression, percentage of inhibitory effect at the highest non toxic concentration (IL-6; 3 μM): 3 μM 100%; ADAMTS-5 gene expression, percentage of inhibitory effect at the highest non toxic concentration (ADAMTS-5; 3 μM): 3 μM 97%; COX2 gene expression, percentage of inhibitory effect at the highest non toxic concentration (COX2; 3 μM, 24 h): 3 μM 76%; Bovine cartilage degradation induced by IL-1α, % inhibitory effect at max concentration ([1]; 1 μM): 96%; Inhibitory effect on the GAG release [1]: 95-100%; MMP3 gene expression, percentage of inhibitory effect at the highest non toxic concentration (MMP3; 3 μM, 24 h): 3 μM 58%; First toxic concentration at 24 h [2]: 10 µM; First toxic concentration at 48 h in rat primary chondrocytes [2]: 3 µM"
"Cc1ccc(NC(=O)c2cccc(S(C)(=O)=O)c2)cc1CCc1cnc(Nc2cnccn2)s1 [Compound 48, N-(4-methyl-3-(2-(2-(pyrazin-2-ylamino)thiazol-5-yl)ethyl)phenyl)-3-(methylsulfonyl)benzamide]",27 nM,10 nM,600 nM,275 nM,3 µM,3 µM,,,,,"MMP13 gene expression, no effect (MMP13; 24 h): ne; IC50 (IL-6; Rattus norvegicus, Chondrocyte, 6 h incubation): 200 nM; ADAMTS-5 gene expression, percentage of inhibitory effect at the highest non toxic concentration (ADAMTS-5; 1 μM): 1 μM 70%; COX2 gene expression, no effect (COX2; 24 h): ne; Bovine cartilage degradation induced by IL-1α, no effect [1]: ne; MMP3 gene expression, no effect (MMP3; 24 h): ne"
"CCN1Cc2cnc(Nc3cc(CCc4cc(NC(=O)c5cccc(C(F)(F)F)c5)ccc4C)n[nH]3)cc2C1 [Compound 17, N-(3-(2-(5-((2-ethyl-2,3-dihydro-1H-pyrrolo[3,4-c]pyridin-6-yl)amino)-1H-pyrazol-3-yl)ethyl)-4-methylphenyl) -3-(trifluoromethyl)benzamide]",8 nM,< 10 nM,,352 nM,>10 µM,>10 µM,10 μM 100%,10 μM 100%,10 μM 96%,10 μM 92%,"IL-1β gene expression, percentage of inhibitory effect at the highest non toxic concentration (IL-1β; 10 μM): 10 μM 99%; ADAMTS-5 gene expression, percentage of inhibitory effect at the highest non toxic concentration (ADAMTS-5; 10 μM): 10 μM 62%; inhibition at 10 µM [1, 4]: 100%"
"O=C(Nc1ccc(F)c(CCc2cc(Nc3cnccn3)[nH]n2)c1)c1cccc(C(F)(F)F)c1 [Compound 13, N-(4-fluoro-3-(2-(5-(pyrazin-2-ylamino)-1H-pyrazol-3-yl)ethyl)phenyl)-3-(trifluoromethyl) benzamide]",26 nM,< 10 nM,,308 nM,3 µM,3 µM,,,,,"MMP13 gene expression, percentage of inhibitory effect at the highest non toxic concentration (MMP13; 1 μM, 24 h): 1 μM 94%; IL-1β gene expression, percentage of inhibitory effect at the highest non toxic concentration (IL-1β; 1 μM): 1 μM 96%; IL-6 gene expression, percentage of inhibitory effect at the highest non toxic concentration (IL-6; 1 μM): 1 μM 100%; ADAMTS-5 gene expression, percentage of inhibitory effect at the highest non toxic concentration (ADAMTS-5; 1 μM): 1 μM 88%; COX2 gene expression, percentage of inhibitory effect at the highest non toxic concentration (COX2; 1 μM, 24 h): 1 μM 96%; inhibition at 1 µM ([1]; Bos taurus, 1 μM, read-out: Bovine cartilage degradation induced by IL-1α, % inhibitory effect at max concentration): 97%; Inhibitory effect on the GAG release [1]: 95-100%; IC50 (MMP3): 300 nM"
"Cc1nc(C#N)cc(Nc2cc(CCc3cc(NC(=O)c4cccc(S(=O)(=O)N(C)C)c4)ccc3C)n[nH]2)n1 [Compound 37, N-(3-(2-(5-((6-cyano-2-methylpyrimidin-4-yl)amino)-1H-pyrazol-3-yl)ethyl)-4-methylphenyl)-3-(N,N-dimethylsulfamoyl)benzamide]",24 nM,35 nM,1600 nM,2260 nM,>10 µM,>10 µM,10 μM 95%,10 μM 97%,10 μM 97%,10 μM 59%,"IC50 (ADAMTS-5): 4000 nM; inhibition at 10 µM [1, 4]: 99%"
"Cc1ccc(NC(=O)c2cccc(C(F)(F)F)c2)cc1CCc1cc(NC(=O)c2ccc(F)cc2)[nH]n1 [Compound 19, N-(3-(2-(3-(4-fluorobenzamido)-1H-pyrazol-5-yl)ethyl)-4-methylphenyl)-3-(trifluoromethyl)benzamide]",69 nM,110 nM,100 nM,883 nM,10 µM,10 µM,,,,,"IC50 (MMP13; [5]): 500 nM; IL-6 gene expression, percentage of inhibitory effect at the highest non toxic concentration (IL-6; 3 μM): 3 μM 99%; IC50 (ADAMTS-5): 100 nM; IC50 (COX2; [5]): 400 nM; inhibition at 3 µM ([1]; Bos taurus, 3 μM, read-out: Bovine cartilage degradation induced by IL-1α, % inhibitory effect at max concentration): 83%; IC50 (MMP3): 600 nM"
"Cc1ccc(NC(=O)c2ccnc(C(C)(C)C#N)c2)cc1CCc1cc(Nc2cnccn2)[nH]n1 [Compound 2, 2-(2-cyanopropan-2-yl)-N-(4-methyl-3-(2-(5-(pyrazin-2-ylamino)-1H-pyrazol-3-yl)ethyl)phenyl)isonicotinamide]",10 nM,< 10 nM,,312 nM,>10 µM,>10 µM,10 μM 99%,10 μM 100%,10 μM 100%,10 μM 92%,"IL-1β gene expression, percentage of inhibitory effect at the highest non toxic concentration (IL-1β; 10 μM): 10 μM 100%; ADAMTS-5 gene expression, percentage of inhibitory effect at the highest non toxic concentration (ADAMTS-5; 10 μM): 10 μM 94%; IC50 ([1]; Bos taurus, head says nM, cells print μM, 48 h stimulation, read-out: Inhibitory effect on bovine cartilage degradation induced by IL-1α, IC50): 800 nM"
